Data from patent publication US10934297B2, “5-heteroaryl substituted indazole-3-carboxamides and preparation and use thereof” (Samumed, LLC, priority 2018, dated 2021).

How the values were obtained:
[1] = tested on: Wnt activity (Sp5-Luc reporter in SW480 cells); assay: Screening assay for Wnt activity: Sp5-Luc reporter gene assay in SW480 colon carcinoma cells; format: cell-based, human; conditions: Homo sapiens, 36 to 48 hours
Source text: The screening assay for Wnt activity is described as follows. Reporter cell lines can be generated by stably transducing cancer cell lines (e.g., colon cancer) or primary cells (e.g., IEC-6 intestinal cells) with a lentiviral construct that includes a Wnt-responsive promoter driving expression of the firefly luciferase gene.
SW480 colon carcinoma cells were transduced with a lentiviral vector expressing luciferase with a human Sp5 promoter consisting of a sequence of eight TCF/LEF binding sites. SW480 cells stably expressing the Sp5-Luc reporter gene and a hygromycin resistance gene were selected by treatment with 150 μg/mL of hygromycin for 7 days. These stably transduced SW480 cells were expanded in cell culture and used for all further screening activities. […] For Sp5-Luc reporter gene assays, the cells were plated at 4,000 cells/well in 384-well plates with a DMEM medium containing 1% fetal bovine serum, and 1% Penicillin-Streptomycin and incubated for 36 to 48 hours at 37° C. and 5% CO2. Following incubation, 15 μl of BriteLite Plus luminescence reagent (Perkin Elmer) was added to each well of the 384-well assay plates. The plates were placed on an orbital shaker for 2 min and then luminescence was quantified using the Envision (Perkin Elmer) plate reader. Readings were normalized to DMSO only treated cells, and normalized activities were utilized for EC50 calculations using the dose-response log (inhibitor) vs. response-variable slope (four parameters) nonlinear regression feature available in GraphPad Prism 5.0 (or Dotmatics).

[2] = target: DYRK1A kinase (Homo sapiens (Human), UniProt Q13627); assay: DYRK1A kinase assay (Ser/Thr 18 peptide Z-lyte FRET); format: biochemical; conditions: read-out: EC50 (method: IC50)
Method: Representative compounds were screened using the assay procedure for DYRK1A kinase activity as described below.
This is a non-radioactive assay using fluorescence resonance energy transfer (FRET) between coumarin and fluorescein to detect kinase activity which is represented as a ratio of coumarin emission/fluorescein emission.
The mixture was allowed to incubate with the representative compounds for one hour at room temperature. All reactions were performed in duplicate. Unphosphorylated (“0% Control”) and phosphorylated (“100% control”) forms of Ser/Thr 18 served as control reactions. Additionally, an 11-point dose-response curve of Staurosporine (1 uM top) was run to serve as a positive compound control.
After incubation, Development Reagent A was diluted in Development Buffer then added to the reaction and allowed to further incubate for one hour at room temperature.

[3] = target: GSK3β kinase (Homo sapiens (Human), UniProt P49841); assay: GSK3β kinase assay (Ser/Thr 09 peptide Z-lyte FRET); format: biochemical; conditions: read-out: EC50 (method: IC50)
GSK3β kinase, sequence (P49841 whole entry): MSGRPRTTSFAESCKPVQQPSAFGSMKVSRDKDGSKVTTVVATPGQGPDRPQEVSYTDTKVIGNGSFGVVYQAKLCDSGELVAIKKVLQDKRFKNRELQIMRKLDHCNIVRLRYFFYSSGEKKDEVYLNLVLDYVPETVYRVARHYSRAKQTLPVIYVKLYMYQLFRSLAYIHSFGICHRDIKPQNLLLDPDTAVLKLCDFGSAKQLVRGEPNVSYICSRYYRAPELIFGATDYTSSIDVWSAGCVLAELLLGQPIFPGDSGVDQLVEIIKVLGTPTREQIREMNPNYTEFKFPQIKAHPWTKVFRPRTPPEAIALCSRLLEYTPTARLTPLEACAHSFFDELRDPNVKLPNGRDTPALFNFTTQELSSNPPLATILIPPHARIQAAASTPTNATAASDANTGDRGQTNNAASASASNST
Method: Representative compounds were screened using the assay procedure for GSK3β kinase activity as described below.
This is a non-radioactive assay using fluorescence resonance energy transfer (FRET) between coumarin and fluorescein to detect kinase activity which is represented as ratio of coumarin emission/fluorescein emission.
The mixture is allowed to incubate with the representative compounds for one hour at room temperature. All reactions were performed in duplicate. Unphosphorylated (“0% Control”) and phosphorylated (“100% control”) forms of Ser/Thr 18 serve as control reactions.
After incubation, diluted Development Buffer is added to the reaction and allowed to further incubate for one hour at room temperature.
Dose-response curves are generated and inhibitory concentration (IC50) values are calculated using non-linear regression curve fit in the Dotmatics' Studies Software (Bishops Stortford, UK).

[4] = tested on: SW480 colon carcinoma cells; assay: Cell viability assay (CellTiter-Glo) in SW480 colon carcinoma cells; format: cell-based, human; conditions: Homo sapiens, 96 h, four days
Method: Representative compounds were screened using the assay procedure to assess the effect on cell viability as described below.
SW480 colon carcinoma cells were transduced with a lentiviral vector expressing luciferase with a human Sp5 promoter consisting of a sequence of eight TCF/LEF binding sites. SW480 cells stably expressing the Sp5-Luc reporter gene and a hygromycin resistance gene were selected by treatment with 150 μg/mL of hygromycin for 7 days. These stably transduced SW480 cells were expanded in cell culture and used for all further screening activities.
For the Cell Viability Assays, the cells were plated at 2,000 cells/well in 384-well plates with a DMEM medium containing 1% fetal bovine serum, and 1% Penicillin-Streptomycin and incubated for […] at 37° C. and 5% CO2. Eight replicates of DMSO-treated cells served as controls and cells treated with compound were performed in duplicate.
After incubation, 10 μL of CellTiter-Glo (Promega) was added to each well allowed to incubate for approximately 12 minutes. This reagent “results in cell lysis and generation of a luminescent signal proportional to the amount of ATP present. The amount of ATP is directly proportional to the number of cells present in culture, in agreement with previous reports. The CellTiter-Glo® Assay generates a “glow-type” luminescent signal, produced by the luciferase reaction (Promega.com)”.

[5] = tested on: primary human fibroblasts derived from IPF patients (LL29 cells); assay: Inhibition of the fibrotic process: αSMA staining in TGF-β1 treated LL29 fibroblasts; format: cell-based; conditions: Homo sapiens, Fibroblast, 96 h; LL29 cells, TGF-β1 20 ng/mL, 4 days, % αSMA positive cells
Method: Representative compounds were screened using primary human fibroblasts (derived from IPF patients) treated with TGF-β1 to determine their ability to inhibit the fibrotic process.
LL29 cells were plated at 1,500 cells/well in 70 μL/well F12 medium supplemented with 1% Fetal Bovine Serum. […] Wells treated with TGF-β1 and containing DMSO were used as positive control, and cells with only DMSO were negative control. […] Following incubation for 4 days, SYTOX green nucleic acid stain (Life Technologies [Thermo Fisher Scientific]) was added to the wells at a final concentration of 1 μM and incubated at room temperature for 30 min.

| EC50 [1] [µM] | IC50 [2] [µM] | IC50 [3] [µM] | EC50 [4] [µM] | Compound | EC50 [5] [µM] |
| --- | --- | --- | --- | --- | --- |
| > 10 | > 10 | > 10 | > 10 | Cn1cc(-c2cc(Cl)c3[nH]nc(C(=O)NC4CCC(F)(F)CC4)c3c2)cn1 [Compound 17, 7-Chloro-N-(4,4-difluorocyclohexyl)-5-(1-methyl-1H-pyrazol-4-yl)-1H-indazole-3-carboxamide] | 1.2 |
| > 10 | 0.618 | 0.788 | 6.02 | CC(C)(C)n1cc(-c2ccc3[nH]nc(C(=O)N[C@H]4CC[C@H](CN5CC(F)C5)CC4)c3c2)cn1 [Compound 25, 5-(1-(tert-Butyl)-1H-pyrazol-4-yl)-N-((1R,4R)-4-((3-fluoroazetidin-1-yl)methyl)cyclohexyl)-1H-indazole-3-carboxamide] | 1.89 |
| > 10 | > 10 | > 10 | 9.24 | CN1CCC(NC(=O)c2n[nH]c3ccc(-c4cc(C(F)(F)F)nn4C)cc23)CC1 [Compound 29, 5-(1-Methyl-3-(trifluoromethyl)-1H-pyrazol-5-yl)-N-(1-methylpiperidin-4-yl)-1H-indazole-3-carboxamide] | > 10 |
|  | 0.028 | 0.029 |  | Cc1ncc(-c2ccc3[nH]nc(C(=O)NC4CCN(CC(C)(C)F)CC4)c3c2)n1C [Compound 42, 5-(1,2-Dimethyl-1H-imidazol-5-yl)-N-(1-(2-fluoro-2-methylpropyl)piperidin-4-yl)-1H-indazole-3-carboxamide] |  |
|  | 0.007 | 0.007 |  | C[C@H]1C[C@H](NC(=O)c2n[nH]c3ccc(-c4cnn(C)c4)cc23)CCN1CC(C)(C)F [Compound 44, N-((2S,4R)-1-(2-fluoro-2-methylpropyl)-2-methylpiperidin-4-yl)-5-(1-methyl-1H-pyrazol-4-yl)-1H-indazole-3-carboxamide] |  |
| 4.58 | 0.19 | 0.674 | > 10 | O=C(Nc1ccc(F)cc1)c1n[nH]c2ccc(-c3cnn(C4CNC4)c3)cc12 [Compound 47, 5-(1-(Azetidin-3-yl)-1H-pyrazol-4-yl)-N-(4-fluorophenyl)-1H-indazole-3-carboxamide] | 5.21 |
| 1.84 | 0.027 | 0.001 | > 10 | O=C(Nc1ccc(F)cc1)c1n[nH]c2ccc(-c3nnc4n3CCNC4)cc12 [Compound 53, N-(4-Fluorophenyl)-5-(5,6,7,8-tetrahydro-[1,2,4]triazolo[4,3-a]pyrazin-3-yl)-1H-indazole-3-carboxamide] | > 10 |
| 1.09 | 1.05 | 5.38 | 0.57 | O=C(Nc1ccc(OC(F)F)cc1)c1n[nH]c2ccc(-c3cnn(C4CCNCC4F)c3)cc12 (stereo not drawn) [Compound 57, N-(4-(Difluoromethoxy)phenyl)-5-(1-(3-fluoropiperidin-4-yl)-1H-pyrazol-4-yl)-1H-indazole-3-carboxamide] | 0.597 |
| 1.5 | 0.053 | 3.02 | 0.328 | CN1CCC(n2cc(-c3ccc4[nH]nc(C(=O)Nc5ccc(OC(F)F)cc5)c4c3)cn2)CC1 [Compound 58, N-(4-(Difluoromethoxy)phenyl)-5-(1-(1-methylpiperidin-4-yl)-1H-pyrazol-4-yl)-1H-indazole-3-carboxamide] | 5.14 |
| > 10 | 9.94 | 9.37 | > 10 | CC(C)(F)CN1CCC(n2cc(-c3ccc4[nH]nc(C(=O)Nc5ccc(OC(F)F)cc5)c4c3)cn2)CC1 [Compound 61, N-(4-(difluoromethoxy)phenyl)-5-(1-(1-(2-fluoro-2-methylpropyl)piperidin-4-yl)-1H-pyrazol-4-yl)-1H-indazole-3-carboxamide] | 0.009 |
| 2.28 | 3.92 | > 10 | > 10 | O=C(Nc1ccc(OC(F)F)cc1)c1n[nH]c2ccc(-c3cnn(C4CCOCC4)c3)cc12 [Compound 62, N-(4-(Difluoromethoxy)phenyl)-5-(1-(tetrahydro-2H-pyran-4-yl)-1H-pyrazol-4-yl)-1H-indazole-3-carboxamide] | 3.1 |
| 0.937 | 0.016 | 0.021 | 1.7 | O=C(Nc1ccc(OC(F)F)cc1)c1n[nH]c2ccc(-c3cnc4n3CCNC4)cc12 [Compound 64, N-(4-(Difluoromethoxy)phenyl)-5-(5,6,7,8-tetrahydroimidazo[1,2-a]pyrazin-3-yl)-1H-indazole-3-carboxamide] | 1.53 |
| 0.549 | 0.009 | 0.035 | 1 | Cn1cc(-c2cc3c(C(=O)Nc4ccc(CN5CC(F)C5)cc4)n[nH]c3cc2F)cn1 [Compound 67, 6-Fluoro-N-(4-((3-fluoroazetidin-1-yl)methyl)phenyl)-5-(1-methyl-1H-pyrazol-4-yl)-1H-indazole-3-carboxamide] | 0.15 |
| 1.29 | 0.107 | 0.302 | 6.2 | Cn1cc(-c2cc3c(C(=O)Nc4ccc(CN5CCC(F)(F)CC5)cc4)n[nH]c3cc2F)cn1 [Compound 76, N-(4-((4,4-Difluoropiperidin-1-yl)methyl)phenyl)-6-fluoro-5-(1-methyl-1H-pyrazol-4-yl)-1H-indazole-3-carboxamide] | 0.174 |
| 0.411 | 0.004 | 0.026 | 2.83 | Cn1cc(-c2cc3c(C(=O)Nc4ccc(CN5CCOCC5)cc4)n[nH]c3cc2F)cn1 [Compound 77, 6-Fluoro-5-(1-methyl-1H-pyrazol-4-yl)-N-(4-(morpholinomethyl)phenyl)-1H-indazole-3-carboxamide] | 0.291 |

| Compound | EC50 [1] [µM] | IC50 [2] [µM] | IC50 [3] [µM] | EC50 [4] [µM] | EC50 [5] [µM] |
| --- | --- | --- | --- | --- | --- |
| O=C(Nc1ccc(F)cc1)c1n[nH]c2ccc(-c3cnc4n3CCNC4)cc12 [Compound 52, N-(4-Fluorophenyl)-5-(5,6,7,8-tetrahydroimidazo[1,2-a]pyrazin-3-yl)-1H-indazole-3-carboxamide] | > 10 | 0.011 | 0.011 |  |  |
